Measured values as given in US20250136552A1, “ANTAGONISTS OF CAV 2.3” (LARIO THERAPEUTICS LIMITED, priority 2021, published 2025).
Read-outs that look alike come from different tables or passages of the source.

Experiments:
Cav2.3 [1] = molecular target: T1, Cav2.3 (Homo sapiens, UniProt Q15878); experiment: Human Cav2.3 channel calcium-influx assay; type: cell-based; settings: HEK-293 T-Rex/Kir2.1 cells with inducible Cav2.3e-β4-α2δ1; Fluo8 fluorescence; 8-point dose response from 30 μM; no pluronic acid; read-out: Cav2.3 (pIC50) (converted)
Protocol: HEK-293 T-Rex cells were transfected with pcDNA3.1-Kir2.1 to generate a stable cell line. After antibiotic selection, the obtained stable pools were analysed using FLIPR^TETRA(membrane potential assay), and a limiting dilution was performed and a HEK-293 T-Rex/Kir2.1 clone was selected. The clone was transfected with pcDNA3.1-Cav2.3e and pBud-Cav-β4-α2δ1 to generate a stable cell line where the Cav2.3e expression is inducible. After antibiotic selection, functional clone pool analysis and two successive limiting dilutions, the final clone underwent a qPCR analysis and a biophysical and pharmacological validation using patch-clamp.
A compound plate, containing 10 test compounds in eight-points dose response with n=4, was prepared. Test compounds dose response curves were prepared in automated fashion in 100% DMSO at CyBio Felix and starting from a stock solution in 100% DMSO; a defined volume was serially moved into destination wells pre-filled with the desired DMSO volume; stock solution concentration volumes were dependent on the final compounds concentrations to be tested and the final DMSO content used in the assay. For the assay test compounds dose response curves ranged from 30 μM and half log dilution with 0.3% final DMSO. In order to obtain the 8-points dose response curve all the concentrations were created by starting from a 10 mM DMSO stock solution and then moving 9.5 μL into a destination well pre-filled with 20.5 μL of 100% DMSO and repeating this step seven times. This initial step was done into 96 MTP plates, 10 compounds/plate. One 384 MTP was then reformatted to contain all the 10 compounds at 8 concentrations, quadruplicate data points. This so obtained 384 MTP compound plate served as source plate in a “mother to child” process with a CyBi®-Well dispenser in which 0.7 μL of compounds were moved into a destination plate pre-filled with 57.6 μL of Tyrode's buffer 0 mM K^+, thus obtaining 4× concentrated compounds solution. In columns 1-2 and 23-24 the control wells were added. Both “source” compound plate and “destination” compound plate were barcoded and a relationship between the two plates was thus generated.
The day before the experiment, cells were detached by gentle wash with DPBS, followed by 5 min incubation at 37° C. with Trypsin solution. Detached cells were diluted with OptiMEM+Doxycycline at 0.2 μg/mL, counted and plated in Poly-D-Lysine coated black/clear bottom (15.000 c/well in 20 μl/well) by the use of a MATRIX WellMate dispenser. Plates were placed into a humidified incubator at 37° C. with 5% CO2 until the experimental day. 24 h after seeding 10 μL/well of 1.5× Fluo8 NW dye solution prepared in Tyrode's buffer 0 mM K^+ were added on top of the seeding medium. Cell plates were incubated for 40-60 min at RT in the dark. We then Injected off-line 10 μL/well of test compounds and controls 4× concentrated in Tyrode's Buffer 0 mM K+ with the CyBi®-Well instrument. Cell plates were incubated 3 minutes at RT. Finally, we injected 20 μL/well of 3× concentrated activator solution (K20-Na130-Ca2 buffer: 20 mM KCl, 130 mM NaCl, 2 mM CaCl2, 10 mM HEPES, 10 mM Glucose, final concentrations, prepared starting from “K0-Na150-Ca2” and “K150-Na0-Ca2” buffers) at FDSS7000EX instrument and read emitted fluorescence for 130 seconds.
Data analysis was performed with Genedata Screener® software and reported compounds activity as % effect in relation to the normalization standards. The Kinetic Response Value (KRV) is calculated as follows:
KRV=Maximal fluorescence recorded from second 5 to second 130 minus baseline fluorescence, computed as average from second 1 to second 2, of the kinetic trace. The KRV was normalized versus Neutral Controls and Inhibitor Controls in order to obtain the Activity[%] for each well. […] Therefore, the compound activity values were scaled (based on the two references) to a common range (two-point normalization). […]
Target sequence in this assay (Q15878 1-2270 isoform Q15878-3): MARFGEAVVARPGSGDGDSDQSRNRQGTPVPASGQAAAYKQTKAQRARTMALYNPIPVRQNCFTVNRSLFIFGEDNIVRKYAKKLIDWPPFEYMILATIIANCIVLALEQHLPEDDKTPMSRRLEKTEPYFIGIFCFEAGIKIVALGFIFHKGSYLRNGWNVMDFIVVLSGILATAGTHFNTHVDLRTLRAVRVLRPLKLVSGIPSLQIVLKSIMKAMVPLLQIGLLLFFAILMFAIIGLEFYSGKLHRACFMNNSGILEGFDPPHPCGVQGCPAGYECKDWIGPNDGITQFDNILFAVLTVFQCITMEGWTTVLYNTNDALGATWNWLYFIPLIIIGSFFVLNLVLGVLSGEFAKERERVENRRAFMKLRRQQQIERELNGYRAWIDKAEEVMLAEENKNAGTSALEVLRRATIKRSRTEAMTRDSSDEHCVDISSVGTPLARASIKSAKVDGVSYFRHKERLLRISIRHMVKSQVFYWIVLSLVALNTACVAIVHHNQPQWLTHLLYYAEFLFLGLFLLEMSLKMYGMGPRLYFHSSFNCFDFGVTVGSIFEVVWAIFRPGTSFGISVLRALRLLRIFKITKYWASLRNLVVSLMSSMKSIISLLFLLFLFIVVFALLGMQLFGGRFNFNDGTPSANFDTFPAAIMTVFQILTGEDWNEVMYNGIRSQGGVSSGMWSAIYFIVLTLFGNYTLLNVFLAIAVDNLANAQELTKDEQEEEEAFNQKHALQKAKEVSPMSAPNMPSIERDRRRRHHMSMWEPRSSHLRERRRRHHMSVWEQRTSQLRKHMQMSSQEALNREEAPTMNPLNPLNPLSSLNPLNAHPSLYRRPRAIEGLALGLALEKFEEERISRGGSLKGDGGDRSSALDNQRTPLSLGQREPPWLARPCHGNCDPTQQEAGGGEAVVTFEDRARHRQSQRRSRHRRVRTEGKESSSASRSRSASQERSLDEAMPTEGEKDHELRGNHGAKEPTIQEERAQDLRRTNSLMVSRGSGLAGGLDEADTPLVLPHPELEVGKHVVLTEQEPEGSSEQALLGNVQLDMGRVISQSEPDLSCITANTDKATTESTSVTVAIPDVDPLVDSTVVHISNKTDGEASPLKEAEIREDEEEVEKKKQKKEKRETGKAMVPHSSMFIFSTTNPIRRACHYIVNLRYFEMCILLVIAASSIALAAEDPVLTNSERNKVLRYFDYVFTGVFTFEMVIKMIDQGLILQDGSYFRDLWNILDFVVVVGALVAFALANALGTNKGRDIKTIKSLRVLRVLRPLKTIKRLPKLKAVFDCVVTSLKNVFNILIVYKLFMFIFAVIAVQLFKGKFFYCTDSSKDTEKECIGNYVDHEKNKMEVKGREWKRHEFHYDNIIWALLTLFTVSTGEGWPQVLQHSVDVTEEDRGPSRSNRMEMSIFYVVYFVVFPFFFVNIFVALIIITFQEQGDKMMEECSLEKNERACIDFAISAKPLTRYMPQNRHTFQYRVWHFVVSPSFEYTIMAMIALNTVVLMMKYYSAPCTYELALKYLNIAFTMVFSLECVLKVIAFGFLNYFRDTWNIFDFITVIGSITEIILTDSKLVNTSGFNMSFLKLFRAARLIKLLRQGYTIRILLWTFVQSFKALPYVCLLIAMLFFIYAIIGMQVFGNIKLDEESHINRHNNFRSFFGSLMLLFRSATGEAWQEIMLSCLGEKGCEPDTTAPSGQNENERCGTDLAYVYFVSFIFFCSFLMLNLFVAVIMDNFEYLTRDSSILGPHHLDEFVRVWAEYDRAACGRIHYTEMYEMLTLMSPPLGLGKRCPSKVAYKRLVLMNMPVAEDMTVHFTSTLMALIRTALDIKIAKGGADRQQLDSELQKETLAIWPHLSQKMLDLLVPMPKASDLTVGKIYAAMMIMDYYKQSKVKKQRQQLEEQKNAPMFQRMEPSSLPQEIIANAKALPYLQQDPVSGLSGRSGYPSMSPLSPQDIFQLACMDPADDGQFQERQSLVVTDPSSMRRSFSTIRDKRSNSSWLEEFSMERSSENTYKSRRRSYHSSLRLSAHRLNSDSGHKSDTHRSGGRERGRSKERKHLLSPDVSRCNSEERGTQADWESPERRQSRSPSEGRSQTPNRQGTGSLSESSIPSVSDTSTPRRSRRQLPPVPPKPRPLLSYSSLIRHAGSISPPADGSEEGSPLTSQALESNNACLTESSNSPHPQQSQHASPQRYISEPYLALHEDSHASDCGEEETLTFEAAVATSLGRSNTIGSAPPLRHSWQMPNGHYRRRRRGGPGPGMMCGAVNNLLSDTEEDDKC

[2] = molecular target: Cav2.3 dependent current in HEK-293 T-Rex/Kir2.1/Cav2.3e-β4-α2δ1 cells (Homo sapiens, UniProt Q15878); experiment: Whole-cell patch clamp assay (QPatch 16X); type: cell-based; settings: whole-cell voltage clamp, room temperature, inward current density; mean ± S.E; read-out: Cav2.3 (pIC50) (converted)
Protocol: HEK-293 T-Rex/Kir2.1/Cav2.3e-β4-α2δ1 cells were seeded 96 hours before experiment and doxycycline at 0.2 μg/mL was added 24 hours before experiment. Just before the experiments cells were washed twice with D-PBS w/o Ca2+/Mg2+ and gently detached from the flask with Detachin. Cells were then re-suspended in the suspension solution (25 mL EX-CELL ACF CHO medium; 0.25 mL of 100× Penicillin/Streptomycin) and placed on the Automated Patch-clamp platform (QPatch 16X).
Standard whole-cell voltage clamp experiments were performed at room temperature using the single hole technology and the following intracellular and extracellular solutions (ICS and ECS, respectively) were used. ICS (mM): CsF 60, CsCl 50, NaCl 10, EGTA 20, BAPTA 5, HEPES 10, NaGTP 0.3, MgATP 5 (pH 7.2; ECS (mM): NMDG-Cl 120, BaCl2 20, HEPES 10, EGTA 7 (pH 7.4). After establishment of the seal and the passage in the whole-cell configuration, the Cav2.3 dependent current was evoked by challenging the cells with the following voltage protocol: the plasma membrane was held at −80 mV then a 50 ms-long depolarizing pulse at 0 mV, followed by a 50 ms-long hyperpolarizing pulse at −100 mV were applied and finally the plasma membrane was held back to −80 mV. This voltage protocol was applied every 10 seconds. Cav2.3 dependent current was first measured in control condition (vehicle, 0.1% DMSO), in the presence of increasing concentration of the compound under investigation and finally SNX 482 was added to fully block any R-type Cav2.3 dependent current.
For data collection, the Sophion proprietary software was used while the analysis was performed off-line using Excel and GraphPad Prism. The inward current (Area Under Curve) measured during each depolarizing pulse was normalized to cell membrane capacitance (Cm) to obtain the average inward current density in each condition (control, compound under investigation and SNX 482). Then, the inhibitory effect of the compound under investigation was evaluated as % of the remaining inward current, normalized to the internal control. […] All data were expressed as mean±S.E

Cav2.3 [3] = molecular target: T1, Cav2.3; settings: read-out: IC50 against Cav2.3; cited from earlier work
Target sequence in this assay (Q15878 whole entry): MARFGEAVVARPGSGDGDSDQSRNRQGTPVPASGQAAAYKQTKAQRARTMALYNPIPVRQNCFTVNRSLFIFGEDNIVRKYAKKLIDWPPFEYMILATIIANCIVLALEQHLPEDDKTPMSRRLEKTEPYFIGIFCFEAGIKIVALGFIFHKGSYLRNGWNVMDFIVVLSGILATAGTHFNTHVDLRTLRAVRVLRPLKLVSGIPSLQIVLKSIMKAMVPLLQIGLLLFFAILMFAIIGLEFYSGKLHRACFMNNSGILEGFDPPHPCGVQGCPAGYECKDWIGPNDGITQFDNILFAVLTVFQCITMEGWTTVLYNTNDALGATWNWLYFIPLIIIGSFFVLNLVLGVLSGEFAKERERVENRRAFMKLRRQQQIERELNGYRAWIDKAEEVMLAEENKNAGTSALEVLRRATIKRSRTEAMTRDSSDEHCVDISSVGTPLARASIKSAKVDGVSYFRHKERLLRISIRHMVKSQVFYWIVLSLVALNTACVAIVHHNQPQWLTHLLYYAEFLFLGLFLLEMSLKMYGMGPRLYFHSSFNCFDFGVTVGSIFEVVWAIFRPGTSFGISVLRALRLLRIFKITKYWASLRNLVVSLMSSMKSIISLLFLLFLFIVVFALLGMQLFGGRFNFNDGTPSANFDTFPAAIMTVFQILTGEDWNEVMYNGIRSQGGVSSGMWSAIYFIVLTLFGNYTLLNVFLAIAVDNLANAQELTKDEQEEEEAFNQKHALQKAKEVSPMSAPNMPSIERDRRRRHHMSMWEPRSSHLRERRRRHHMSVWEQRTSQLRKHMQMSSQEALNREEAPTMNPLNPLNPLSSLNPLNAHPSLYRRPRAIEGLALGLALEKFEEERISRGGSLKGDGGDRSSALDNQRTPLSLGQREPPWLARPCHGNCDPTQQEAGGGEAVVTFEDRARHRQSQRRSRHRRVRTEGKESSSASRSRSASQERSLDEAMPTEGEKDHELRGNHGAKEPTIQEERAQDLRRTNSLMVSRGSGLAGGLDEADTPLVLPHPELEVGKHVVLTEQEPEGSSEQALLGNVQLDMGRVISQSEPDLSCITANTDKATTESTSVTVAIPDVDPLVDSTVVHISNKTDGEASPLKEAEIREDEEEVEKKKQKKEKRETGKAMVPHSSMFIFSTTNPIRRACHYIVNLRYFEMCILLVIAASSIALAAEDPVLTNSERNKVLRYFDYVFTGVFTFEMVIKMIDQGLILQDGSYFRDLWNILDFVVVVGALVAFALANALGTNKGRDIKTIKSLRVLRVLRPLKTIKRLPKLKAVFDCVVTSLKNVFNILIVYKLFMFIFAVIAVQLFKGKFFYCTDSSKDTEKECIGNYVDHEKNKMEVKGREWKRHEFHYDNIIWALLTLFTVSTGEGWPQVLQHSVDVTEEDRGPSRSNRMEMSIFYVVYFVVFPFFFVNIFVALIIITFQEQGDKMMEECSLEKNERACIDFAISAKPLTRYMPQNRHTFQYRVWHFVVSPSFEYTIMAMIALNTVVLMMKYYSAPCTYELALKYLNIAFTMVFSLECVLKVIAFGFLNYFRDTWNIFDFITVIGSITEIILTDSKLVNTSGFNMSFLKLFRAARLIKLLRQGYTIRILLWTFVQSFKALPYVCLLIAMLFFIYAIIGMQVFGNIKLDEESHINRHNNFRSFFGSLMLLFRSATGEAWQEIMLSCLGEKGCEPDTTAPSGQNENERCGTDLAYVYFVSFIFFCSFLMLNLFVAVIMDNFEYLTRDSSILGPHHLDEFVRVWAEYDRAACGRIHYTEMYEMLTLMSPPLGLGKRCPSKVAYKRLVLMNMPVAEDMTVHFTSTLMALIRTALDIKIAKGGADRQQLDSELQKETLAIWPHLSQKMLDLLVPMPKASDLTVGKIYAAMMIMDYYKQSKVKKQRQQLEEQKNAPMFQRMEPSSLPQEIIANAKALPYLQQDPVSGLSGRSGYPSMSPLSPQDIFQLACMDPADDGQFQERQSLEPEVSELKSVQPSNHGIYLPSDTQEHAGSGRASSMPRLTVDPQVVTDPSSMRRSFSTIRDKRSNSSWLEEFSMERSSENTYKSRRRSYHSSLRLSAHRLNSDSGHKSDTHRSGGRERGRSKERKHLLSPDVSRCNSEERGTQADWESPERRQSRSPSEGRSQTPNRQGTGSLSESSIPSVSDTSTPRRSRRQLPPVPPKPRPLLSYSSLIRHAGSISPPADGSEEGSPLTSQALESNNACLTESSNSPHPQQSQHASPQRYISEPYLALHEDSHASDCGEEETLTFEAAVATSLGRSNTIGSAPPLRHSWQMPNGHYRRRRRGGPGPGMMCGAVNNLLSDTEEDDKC

Chain of Cav2.3 dependent current in HEK-293 T-Rex/Kir2.1/Cav2.3e-β4-α2δ1 cells (Q15878 1-2270 isoform Q15878-3): as the sequence (Q15878 1-2270 isoform Q15878-3) above

Row | Compound | IC50 (Cav2.3 [1]) [nM] | IC50 [2] [nM] | IC50 (Cav2.3 [3]) [nM]
1 | CCN([C@@H](C)c1ccccc1)S(=O)(=O)c1ccc2c(c1)CN(C(=O)C1CC1)CC2 [Example 14, (S)-2-(cyclopropanecarbonyl)-N-ethyl-N-(1-phenylethyl)-1,2,3,4-tetrahydroisoquinoline-7-sulfonamide] | 724 | 1120 | 
2 | CCN([C@@H](C)c1ccc(C(F)(F)F)cc1)S(=O)(=O)c1ccc2c(c1)CCN(C(=O)C(C)C)C2 [Example 20, (S)-N-ethyl-2-isobutyryl-N-(1-(4-(trifluoromethyl)phenyl)ethyl)-1,2,3,4-tetrahydroisoquinoline-6-sulfonamide] | 1580 | 372 | 
3 | CC(C)C(=O)N1CCc2ccc(S(=O)(=O)N(CCF)C(c3ccc(F)cc3)C(F)(F)F)cc2C1 (stereo not drawn) [Example 49, N-(2-fluoroethyl)-2-isobutyryl-N-(2,2,2-trifluoro-1-(4-fluorophenyl)ethyl)-1,2,3,4-tetrahydroisoquinoline-7-sulfonamide] | 513 | 204 | 
4 | SNX-482 (GVDKAGCRYMFGGCSVNDDCCPRLGCHSLFSYCAWDLTFSD; UniProt P56854 1-41, looked up) |  |  | 15 to 30

Now from value to compound, other results behind:

Row | IC50 (Cav2.3 [1]) [nM] | IC50 [2] [nM] | Compound | IC50 (Cav2.3 [3]) [nM]
5 | 398 | 87.1 | CCN([C@H](c1ccc(F)cc1)C(F)(F)F)S(=O)(=O)c1ccc2c(c1)CN(C(=O)C(C)C)CC2 (stereo in doubt) [Example 6, N-ethyl-2-isobutyryl-N-(2,2,2-trifluoro-1-(4-fluorophenyl)ethyl)-1,2,3,4-tetrahydroisoquinoline-7-sulfonamide] | 
6 | 661 | 251 | CCN([C@@H](C)c1ccc(C(F)(F)F)cc1)S(=O)(=O)c1ccc2c(c1)CN(C(=O)C(C)C)CC2 [Example 1, (S)-N-ethyl-2-isobutyryl-N-(1-(4-(trifluoromethyl)phenyl)ethyl)-1,2,3,4-tetrahydroisoquinoline-7-sulfonamide] | 
7 | 676 | 525 | CC(C)C(=O)N1CCc2ccc(S(=O)(=O)N(C)[C@H](c3ccc(F)cc3)C(F)(F)F)cc2C1 [Example 9, (R)-2-isobutyryl-N-methyl-N-(2,2,2-trifluoro-1-(4-fluorophenyl)ethyl)-1,2,3,4-tetrahydroisoquinoline-7-sulfonamide] | 
8 | 537 | 93.3 | CCN([C@@H](C)c1ccc(F)cc1)S(=O)(=O)c1ccc2c(c1)CN(C(=O)C(C)C)CC2 [Example 12, (S)-N-ethyl-N-(1-(4-fluorophenyl)ethyl)-2-isobutyryl-1,2,3,4-tetrahydroisoquinoline-7-sulfonamide] | 
